Structures are written as SMILES. Changes are numbered by the printed parent chain.

For orientation: IC50 means the midpoint of a concentration-inhibition curve. Broadly, the Kd is a measure of binding affinity in units of concentration. By CLint scaled is commonly meant the capacity of the preparation to metabolise the compound, expressed as a volume cleared per time. As a reminder, the half-life is how long it takes for the measured level to halve.

For series [1], the system named is MOLM13^FLT3-ITD cells. Put plainly: MOLM13 cell viability. The series is classed as cell-based. Conditions: Homo sapiens, MOLM-13, 72 h, read-out: MOLM13^FLT3-ITD IC50.
The target of series [2] is T1, FLT3 (D835Y) (Homo sapiens, UniProt P36888, D835Y).
T1 sequence (P36888 27-993 D835Y): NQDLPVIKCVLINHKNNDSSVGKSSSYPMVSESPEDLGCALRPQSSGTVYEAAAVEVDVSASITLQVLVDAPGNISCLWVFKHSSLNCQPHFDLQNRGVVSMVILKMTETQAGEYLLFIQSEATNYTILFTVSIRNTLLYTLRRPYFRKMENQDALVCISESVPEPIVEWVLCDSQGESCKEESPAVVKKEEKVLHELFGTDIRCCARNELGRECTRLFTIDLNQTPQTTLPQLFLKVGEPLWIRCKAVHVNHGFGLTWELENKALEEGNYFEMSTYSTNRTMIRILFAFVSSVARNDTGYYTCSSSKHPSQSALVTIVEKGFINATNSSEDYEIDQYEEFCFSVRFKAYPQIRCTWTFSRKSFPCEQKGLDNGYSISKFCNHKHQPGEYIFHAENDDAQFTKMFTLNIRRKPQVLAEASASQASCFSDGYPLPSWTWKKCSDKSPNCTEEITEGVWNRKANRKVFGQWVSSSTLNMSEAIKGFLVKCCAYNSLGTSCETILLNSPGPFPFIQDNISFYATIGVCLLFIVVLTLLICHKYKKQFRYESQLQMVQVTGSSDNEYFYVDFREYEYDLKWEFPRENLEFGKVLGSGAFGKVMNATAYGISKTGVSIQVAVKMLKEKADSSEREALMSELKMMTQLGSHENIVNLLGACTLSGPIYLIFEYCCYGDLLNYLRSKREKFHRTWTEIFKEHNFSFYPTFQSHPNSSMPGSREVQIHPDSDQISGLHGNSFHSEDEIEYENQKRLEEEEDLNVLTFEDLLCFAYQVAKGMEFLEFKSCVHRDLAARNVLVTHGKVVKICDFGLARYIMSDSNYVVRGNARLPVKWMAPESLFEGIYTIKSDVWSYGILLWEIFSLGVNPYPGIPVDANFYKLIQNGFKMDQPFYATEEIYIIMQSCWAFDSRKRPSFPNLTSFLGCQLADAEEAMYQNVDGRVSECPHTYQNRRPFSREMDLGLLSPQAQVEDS
The series can be described thus: Kd determination. The series is classed as binding.

Series [3] deals with T2, FLT3 (Homo sapiens, UniProt P36888).
T2 sequence (P36888 27-993): T1 sequence (P36888 27-993 D835Y) with Y809D
Put plainly: Kd determination. The series is classed as binding.

Series [4] is described as follows: Liver microsomal stability. Conditions: rat, liver microsomes, pH 7.4. (In general: Liver microsomes are vesicles of endoplasmic reticulum, rich in cytochrome P450 enzymes.)
Series [5] addresses T3, FLT3 (K663Q) (Homo sapiens, UniProt P36888, K663Q).
T3 sequence (P36888 27-993 K663Q): T1 sequence (P36888 27-993 D835Y) with K637Q, Y809D
Put plainly: Kd determination. The series is classed as binding.

As for `CC(C)Nc1ccnc(Nc2cccc(-c3cccnc3)c2)n1` [Compound 5e, N^4-Isopropyl-N^2-(3-(pyridin-3-yl)phenyl)pyrimidine-2,4-diamine], the IC50 in series [1] came out at 136 nM. Besides, the Kd in series [2] turned out to be 0.59 nM. For the same compound, in series [3], the Kd came to 3.6 nM; the “fold more potent against FLT3 than PDGFRB and JAK1 JH2 domain (Kd)” value is reported as “approximately 8 fold”. In series [4], this compound gave a CLint scaled at 4 µM of 41.7 ± 2.7 mL/min/kg and a half-life at 4 µM of 1.1 ± 0.1 h. In series [5], this compound registered a Kd of 13 nM.

Take `c1cncc(-c2cccc(Nc3nccc(NC4CCCCC4)n3)c2)c1` [Compound 1, N^4-Cyclohexyl-N^2-(3-(pyridin-3-yl)phenyl)pyrimidine-2,4-diamine]: the IC50 in series [1] amounted to 620 nM. In addition, the values for the Kd in series [2], in series [3] and in series [5] were 13 nM, 61 nM and 110 nM, respectively. Moreover, in series [4], the CLint scaled at 4 µM was determined as 44.9 ± 1.4 mL/min/kg. The half-life at 4 µM in series [4] is 1.04 ± 0.03 h.

`CC(C)Nc1ccnc(Nc2ccccc2-c2ccccc2)n1` [Compound 6a, N^2-([1,1′-Biphenyl]-2-yl)-N^4-isopropylpyrimidine-2,4-diamine]: the IC50 in series [1] was more than 10000 nM. In addition, the Kd in series [2], in series [3] and in series [5] was more than 10000 nM in each case.

For the origin of these results see PMC5452050 (ACS Omega, 2017).
